Source: PMC12263571, “Antiviral effects of mogroside V against porcine reproductive and respiratory syndrome virus in vitro” (Frontiers in Microbiology, 2025)
Like-named read-outs stand apart in the source and are kept apart here.

What was measured:
[1] = system: HP-PRRSV-GFP; experiment: Antiviral assay (TCID50, RT-qPCR, IFA) against HP-PRRSV-GFP strain in Marc-145 and PAM cells; format: cell-based, porcine reproductive and respiratory syndrome virus
Protocol: (§1) To investigate the stage-specific antiviral effects of mogroside V (MV) and evaluate its ability to inhibit PRRSV replication in Marc-145 and PAM cells, three distinct treatment groups were established for in vitro evaluation: pre-treatment group, post-treatment group, and co-treatment group. Viral replication was assessed through multiple approaches: quantification of viral mRNA copies by RT-qPCR, determination of viral titers using the TCID50 method, and analysis of PRRSV N protein expression via immunofluorescence assay (IFA). The experimental design was as follows:
(§2) Pre-treatment group: to investigate the preventive effect of MV prior to PRRSV infection, Marc-145 or PAM cells were pretreated with MV before viral challenge. Cells in good growth condition were seeded in 6-well plates and cultured until monolayer formation. After removing the old medium, cells were washed twice with PBS, followed by incubation with varying concentrations of MV for 24 h. The drug was then removed, and cells were washed twice with PBS before infection with PRRSV (100 TCID50) for 48 h. Subsequently, viral mRNA copies, viral titers, and PRRSV N protein fluorescence expression were measured to calculate viral inhibition rates.
(§3) Post-treatment group: In order to investigate the effect of MV on PRRSV infection, MV was added after Marc-145 or PAM cells were infected with PRRSV. The cells with good growth status were inoculated in the 6-well cell culture plate. After the cells grew to monolayer, the old medium was discarded and the cells were cleaned twice with PBS. PRRSV (100 TCID50) was inoculated and incubated for 1 h, during which the virus could be shaken repeatedly to fully interact with cells. The virus venom was removed, washed twice with PBS, and incubated with different concentrations of MV for 48 h. After that, the viral mRNA copies and viral titer were detected, the viral inhibition rate was calculated, and the fluorescence expression of PRRSV N protein was observed.
(§4) Co-treatment group: In order to study the direct effect of MV on PRRSV, PRRSV and MV were simultaneously inoculated in Marc-145 or PAM cells for treatment. The cells with good growth status were inoculated in the 6-well cell culture plate. After the cells grew to monolayer, the old medium was discarded and the cells were cleaned twice with PBS. MV at different concentrations was mixed with PRRSV (100 TCID50) and inoculated into Marc-145 and PAM cells for 48 h. After that, the viral mRNA copies and viral titer were detected, viral inhibition rate was calculated, and the fluorescence expression of PRRSV N protein was observed.
(§5) Real-time quantitative PCR (RT-qPCR) was performed to determine PRRSV gene expression levels. Viral RNA was extracted from cell culture supernatants using a commercial viral DNA/RNA extraction kit according to the manufacturer's protocol, with subsequent storage at −80°C until further analysis. RT-qPCR amplification were conducted using TransScript Green One-Step qRT-PCR SuperMix kit.
(§6) The supernatant from 6-well culture plates was collected into 1.5 mL microcentrifuge tubes and stored at −80°C for subsequent analysis. Cells were washed twice with PBS and fixed with ice-cold methanol for 15 min at room temperature. Non-specific binding sites were blocked with 1% BSA containing 0.05% Tween 20 for 30 min at ambient temperature. Cells were then incubated with anti-PRRSV N protein monoclonal antibody either for 2 h at 37°C or overnight at 4°C. Following primary antibody incubation, cells were treated with fluorophore-conjugated secondary antibody (goat anti-mouse IgG, Alexa Fluor 488) for 1 h at 37°C. Nuclei were counterstained with DAPI for 10 min at room temperature protected from light. Fluorescence microscopy was performed to examine the subcellular distribution and expression levels of PRRSV N protein. Stained cell monolayers were visualized under 4 × , 10 × , and 20 × objective lenses using an epifluorescence microscope. […]

[2] = system: PRRSV; experiment: Antiviral assay against PRRSV, both strains (HP-PRRSV-GFP and NADC30) taken together; format: cell-based, porcine reproductive and respiratory syndrome virus
Protocol: as §1, §2, §3, §4, §5, §6

[3] = system: Porcine alveolar macrophages (PAMs); experiment: CCK-8 cytotoxicity assay in PAM cells; format: cell-based
Protocol: (§7) The cytotoxicity of MV was assessed using the Cell Counting Kit-8 (CCK-8) assay to determine cell viability. Porcine alveolar macrophages (PAMs) and Marc-145 cells were seeded in 96-well plates and treated with varying concentrations of MV (0, 100, 200, 400 or 800 μM) for 24, 48, 72, and 96 h. Following the manufacturer's protocol, CCK-8 reagent was added to each well, and cells were incubated for 2 h at 37°C under 5% CO2. Absorbance was measured at 450 nm using a microplate reader. Cell viability (%) was calculated using the formula:Cell viability (%) = [OD (sample) – OD (blank)/OD (control) – OD (blank)] × 100%, where OD (blank) represents the background absorbance of cell-free medium, and OD (control) denotes untreated cells.
(§8) The half-maximal inhibitory concentration (IC50) value for MV-mediated cytotoxicity was calculated through nonlinear regression fitting of dose-response curves.

[4] = system: NADC30 strain; experiment: Antiviral assay (TCID50, RT-qPCR, IFA) against NADC30 strain in Marc-145 and PAM cells; format: cell-based, porcine reproductive and respiratory syndrome virus; settings: for viral titers: co-treatment; for PRRSV N protein expression (IFA): PAMs, pre-treatment
Protocol: as §1, §2, §3, §4, §5, §6

[5] = system: immunomodulatory cytokines gene expression in PAMs; experiment: RT-qPCR of immunoregulatory factor gene expression in PAMs; format: cell-based, porcine
[6] = system: Marc-145 cells; experiment: CCK-8 cytotoxicity assay in Marc-145 cells; format: cell-based
Protocol: as §7, §8

[7] = Marc-145 and PAM cells, 400 μM MV
[8] = Marc-145 and PAM cells, MV ≤ 200 μM
[9] = pre-treatment, 400 μM MV, both cell types, vs untreated controls, P < 0.01

## C[C@H](CC[C@@H](O[C@@H]1O[C@H](CO[C@@H]2O[C@H](CO)[C@@H](O)[C@H](O)[C@H]2O)[C@@H](O)[C@H](O)[C@H]1O[C@@H]1O[C@H](CO)[C@@H](O)[C@H](O)[C@H]1O)C(C)(C)O)[C@H]1CC[C@@]2(C)[C@@H]3CC=C4[C@@H](CC[C@H](O[C@@H]5O[C@H](CO[C@@H]6O[C@H](CO)[C@@H](O)[C@H](O)[C@H]6O)[C@@H](O)[C@H](O)[C@H]5O)C4(C)C)[C@]3(C)[C@H](O)C[C@]12C [MV, Mogroside V]
[1]; Marc-145 and PAM cells
  increase in mRNA inhibition, 400 μM vs 200 μM: 53 percentage-point
  increase in viral titer inhibition, 400 μM vs 200 μM: 52 percentage-point
[1]; [7]
  average mRNA inhibition rate: exceeding 95%
  average viral titer inhibition rate: exceeding 95%
[1]; [8]
  average mRNA inhibition rate: below 42%
  average viral titer inhibition rate: below 43%
[1]; Marc-145 cells, co-treatment, 400 μM MV
  viral titers: below the detection threshold
[1]; PAM cells, co-treatment, 400 μM MV
  viral titers: below the detection threshold
[1]; PAMs, pre-treatment, 200 μM MV, P < 0.05
  viral mRNA copies: significantly suppressed
[1]; PAMs, pre-treatment, 200 μM MV, P > 0.05
  viral titers: no significant reduction
[2]; 200 μM MV, Marc-145 and PAM cells, mean values across all treatment groups
  inhibition rate for viral titers: 43%
[2]; 400 μM MV
  maximal inhibition of viral titers: up to 100%
[2]; 400 μM vs 200 μM MV
  greater suppression of viral mRNA, high- vs low-concentration group: 51%
[2]; Marc-145 cells, pre-treatment, 400 μM MV, P < 0.01
  viral fluorescence intensity (IFA): markedly diminished
[2]; Marc-145 or PAM cells, 400 μM MV, post-infection and co-treatment regimens
  PRRSV N protein expression (IFA): no detectable PRRSV N protein expression
[2]; co-treatment, 400 μM MV, P < 0.01
  viral replication in cells: markedly suppressed
[2]; post-treatment (1 h post-infection), 400 μM MV, Marc-145 and PAM cells
  viral titers: undetectable levels
[2]; post-treatment (1 h post-infection), 400 μM MV, Marc-145 and PAM cells, P < 0.01
  viral mRNA copies: significantly reduced
[2]; [9]
  PRRSV mRNA levels: significantly reduced
  viral titers: significantly reduced
[3]; PAM cells, 400 μM MV
  cell viability: exceeded 75%
[3]; PAM cells, 24 h, read-out: IC50 (cytotoxicity)
  IC50: 577 µM
[3]; PAM cells, 48 h, read-out: IC50 (cytotoxicity)
  IC50: 599 µM
[3]; PAM cells, 72 h, read-out: IC50 (cytotoxicity)
  IC50: 704 µM
[3]; PAM cells, 96 h, read-out: IC50 (cytotoxicity)
  IC50: 582 µM
[3]; all IC50 values, Marc-145 and PAM cells, 24-96 h, read-out: IC50 values, all
  IC50: ≥ 577 µM
[4]; Marc-145 and PAM cells
  enhancement in mRNA inhibition, 400 μM vs 200 μM: 49 percentage-point
  improvement in viral titer inhibition, 400 μM vs 200 μM: 43 percentage-point
[4]; [7]
  average mRNA inhibition rate: > 94%
  average viral titer inhibition rate: > 98%
[4]; [8]
  average mRNA inhibition rate: below 45%
  average viral titer inhibition rate: below 55%
[4]; Marc-145 cells, 400 μM MV
  viral titers: below the detection threshold
[4]; PAM cells, 400 μM MV (CPE in only two replicate wells)
  viral titers: approached the lower detection limit
[4]; 400 μM MV, P < 0.01
  PRRSV N protein expression (IFA): significantly reduced
[4]; 100 and 200 μM MV
  PRRSV N protein expression (IFA): no statistically significant effects
[5]
  pro-inflammatory cytokine storm, such as excessive TNF-α secretion: no evidence of a pro-inflammatory cytokine storm
[5]; RT-qPCR
  IL-1 gene expression: significantly upregulates
  IL-1β gene expression: significantly upregulates
  IL-2 gene expression: significantly upregulates
  IL-8 gene expression: significantly upregulates
  IL-18 gene expression: significantly upregulates
[6]; Marc-145 cells, 400 μM MV
  cell viability: exceeded 75%
[6]; Marc-145 cells, 24 h
  IC50: 686 µM
[6]; Marc-145 cells, 48 h
  IC50: 756 µM
[6]; Marc-145 cells, 72 h
  IC50: 756 µM
[6]; Marc-145 cells, 96 h
  IC50: 760 µM
[6]; PAM and Marc-145 cells
  maximum safe drug concentration: 400 µM
